Test results: patent US7202280B2, “Methods for the treatment and prevention of pancreatitis and for induction of liver regeneration” (priority 2002, dated 2007)

Key:
[1] = system: syngenic and metallothionein-SSAT mice; assay: Hepatic, pancreatic and renal polyamine concentration in syngenic and metallothionein-SSAT mice after analogue; type: in vivo, mouse; details: 24 h before sacrifice
Description: (§1) α-methylspermidine, Bis-α-methylspermine and α-methylspermine were administered in saline. […] The data are expressed as means ±S.D. For statistical analysis, the two-tailed Student's t test was used.

[2] = system: syngenic and UKU181 transgenic mice; assay: Plasma α-amylase and ALAT in syngenic and transgenic mice after analogue injection; type: in vivo, mouse; details: 24 h before sacrifice
Description: as §1

[3] = Tg (transgenic) mice, 12.5 mg/kg
[4] = Tg (transgenic) mice, 37.5 mg/kg

## CC(N)CCNCCCCNCCCN (stereo not drawn) [α-methylspermine, 1-methylspermine]
[1]; Sg (syngenic) mice, 12.5 mg/kg
  hepatic concentration, α-Methylspermine: 470.60 pmoles/mg tissue wet weight
  hepatic polyamine concentration, N^1-Acetylspermidine: 37.49 pmoles/mg tissue wet weight
  hepatic polyamine concentration, Putrescine: 39.46 pmoles/mg tissue wet weight
  hepatic polyamine concentration, Spermidine: 669.94 pmoles/mg tissue wet weight
  hepatic polyamine concentration, Spermine: 568.21 pmoles/mg tissue wet weight
  pancreatic polyamine concentration, N^1-Acetylspermidine: 56.32 pmoles/mg tissue wet weight
  pancreatic polyamine concentration, N^8-Acetylspermidine: 17.17 pmoles/mg tissue wet weight
  pancreatic polyamine concentration, Putrescine: 80.74 pmoles/mg tissue wet weight
  pancreatic polyamine concentration, Spermidine: 7952.04 pmoles/mg tissue wet weight
  pancreatic polyamine concentration, Spermine: 1048.44 pmoles/mg tissue wet weight
  renal concentration, α-Methylspermine: 197.48 ± 6.80 pmoles/mg tissue wet weight
  renal polyamine concentration, N^1-Acetylspermidine: 46.16 pmoles/mg tissue wet weight
  renal polyamine concentration, N^8-Acetylspermidine: 24.91 pmoles/mg tissue wet weight
  renal polyamine concentration, Putrescine: 48.17 pmoles/mg tissue wet weight
  renal polyamine concentration, Spermidine: 312.55 pmoles/mg tissue wet weight
  renal polyamine concentration, Spermine: 247.41 pmoles/mg tissue wet weight
[1]; Sg (syngenic) mice, 25 mg/kg
  hepatic concentration, α-Methylspermine: 420.20 pmoles/mg tissue wet weight
  hepatic polyamine concentration, Putrescine: 44.18 pmoles/mg tissue wet weight
  hepatic polyamine concentration, Spermidine: 1015.51 pmoles/mg tissue wet weight
  hepatic polyamine concentration, Spermine: 411.06 pmoles/mg tissue wet weight
  pancreatic polyamine concentration, N^1-Acetylspermidine: 19.45 pmoles/mg tissue wet weight
  pancreatic polyamine concentration, N^8-Acetylspermidine: 24.47 pmoles/mg tissue wet weight
  pancreatic polyamine concentration, Putrescine: 50.98 pmoles/mg tissue wet weight
  pancreatic polyamine concentration, Spermidine: 5421.66 pmoles/mg tissue wet weight
  pancreatic polyamine concentration, Spermine: 729.10 pmoles/mg tissue wet weight
  renal concentration, α-Methylspermine: 228.87 ± 6.44 pmoles/mg tissue wet weight
  renal polyamine concentration, N^1-Acetylspermidine: 59.48 pmoles/mg tissue wet weight
  renal polyamine concentration, N^8-Acetylspermidine: 25.80 pmoles/mg tissue wet weight
  renal polyamine concentration, Putrescine: 122.64 pmoles/mg tissue wet weight
  renal polyamine concentration, Spermidine: 215.41 pmoles/mg tissue wet weight
  renal polyamine concentration, Spermine: 272.18 pmoles/mg tissue wet weight
[1]; Sg (syngenic) mice, 37.5 mg/kg
  hepatic concentration, α-Methylspermine: 510.72 pmoles/mg tissue wet weight
  hepatic polyamine concentration, Spermidine: 830.89 pmoles/mg tissue wet weight
  hepatic polyamine concentration, Spermine: 485.75 pmoles/mg tissue wet weight
  pancreatic polyamine concentration, Putrescine: 36.15 pmoles/mg tissue wet weight
  pancreatic polyamine concentration, Spermidine: 5806.20 pmoles/mg tissue wet weight
  pancreatic polyamine concentration, Spermine: 804.72 pmoles/mg tissue wet weight
  renal concentration, α-Methylspermine: 245.67 ± 38.85 pmoles/mg tissue wet weight
  renal polyamine concentration, N^1-Acetylspermidine: 30.29 pmoles/mg tissue wet weight
  renal polyamine concentration, N^8-Acetylspermidine: 24.30 pmoles/mg tissue wet weight
  renal polyamine concentration, Putrescine: 59.01 pmoles/mg tissue wet weight
  renal polyamine concentration, Spermidine: 244.82 pmoles/mg tissue wet weight
  renal polyamine concentration, Spermine: 207.72 pmoles/mg tissue wet weight
[1]; Sg (syngenic) mice, 50 mg/kg
  hepatic concentration, α-Methylspermine: 521.41 pmoles/mg tissue wet weight
  hepatic polyamine concentration, N^1-Acetylspermidine: 45.74 pmoles/mg tissue wet weight
  hepatic polyamine concentration, N^8-Acetylspermidine: 15.33 pmoles/mg tissue wet weight
  hepatic polyamine concentration, Putrescine: 22.71 pmoles/mg tissue wet weight
  hepatic polyamine concentration, Spermidine: 780.24 pmoles/mg tissue wet weight
  hepatic polyamine concentration, Spermine: 419.39 pmoles/mg tissue wet weight
  pancreatic polyamine concentration, N^8-Acetylspermidine: 19.89 pmoles/mg tissue wet weight
  pancreatic polyamine concentration, Putrescine: 107.70 pmoles/mg tissue wet weight
  pancreatic polyamine concentration, Spermidine: 6839.92 pmoles/mg tissue wet weight
  pancreatic polyamine concentration, Spermine: 811.45 pmoles/mg tissue wet weight
  renal concentration, α-Methylspermine: 263.69 ± 49.92 pmoles/mg tissue wet weight
  renal polyamine concentration, N^1-Acetylspermidine: 48.23 pmoles/mg tissue wet weight
  renal polyamine concentration, N^8-Acetylspermidine: 21.09 pmoles/mg tissue wet weight
  renal polyamine concentration, Putrescine: 160.04 pmoles/mg tissue wet weight
  renal polyamine concentration, Spermidine: 193.19 pmoles/mg tissue wet weight
  renal polyamine concentration, Spermine: 258.42 pmoles/mg tissue wet weight
[1]; [3]
  hepatic concentration, α-Methylspermine: 138.89 pmoles/mg tissue wet weight
  hepatic polyamine concentration, N^1-Acetylspermidine: 242.81 pmoles/mg tissue wet weight
  hepatic polyamine concentration, Putrescine: 857.28 pmoles/mg tissue wet weight
  hepatic polyamine concentration, Spermidine: 717.42 pmoles/mg tissue wet weight
  hepatic polyamine concentration, Spermine: 62.74 pmoles/mg tissue wet weight
  pancreatic concentration, α-Methylspermine: 132.85 ± 26.34 pmoles/mg tissue wet weight
  pancreatic polyamine concentration, N^1-Acetylspermidine: 154.67 pmoles/mg tissue wet weight
  pancreatic polyamine concentration, Putrescine: 5691.31 pmoles/mg tissue wet weight
  pancreatic polyamine concentration, Spermidine: 2304.42 pmoles/mg tissue wet weight
  pancreatic polyamine concentration, Spermine: 42.35 pmoles/mg tissue wet weight
  renal concentration, α-Methylspermine: 198.34 ± 10.11 pmoles/mg tissue wet weight
  renal polyamine concentration, N^1-Acetylspermidine: 38.55 pmoles/mg tissue wet weight
  renal polyamine concentration, N^8-Acetylspermidine: 24.62 pmoles/mg tissue wet weight
  renal polyamine concentration, Putrescine: 58.16 pmoles/mg tissue wet weight
  renal polyamine concentration, Spermidine: 247.60 pmoles/mg tissue wet weight
  renal polyamine concentration, Spermine: 208.03 pmoles/mg tissue wet weight
[1]; Tg (transgenic) mice, 25 mg/kg
  hepatic concentration, α-Methylspermidine: 197.89 ± 47.51 pmoles/mg tissue wet weight
  hepatic concentration, α-Methylspermine: 145.99 pmoles/mg tissue wet weight
  hepatic polyamine concentration, N^1-Acetylspermidine: 317.98 pmoles/mg tissue wet weight
  hepatic polyamine concentration, N^8-Acetylspermidine: 36.49 pmoles/mg tissue wet weight
  hepatic polyamine concentration, Putrescine: 872.47 pmoles/mg tissue wet weight
  hepatic polyamine concentration, Spermidine: 349.61 pmoles/mg tissue wet weight
  hepatic polyamine concentration, Spermine: 49.71 pmoles/mg tissue wet weight
  pancreatic concentration, α-Methylspermine: 130.62 ± 33.84 pmoles/mg tissue wet weight
  pancreatic polyamine concentration, N^1-Acetylspermidine: 327.88 pmoles/mg tissue wet weight
  pancreatic polyamine concentration, Putrescine: 5798.24 pmoles/mg tissue wet weight
  pancreatic polyamine concentration, Spermidine: 2449.50 pmoles/mg tissue wet weight
  pancreatic polyamine concentration, Spermine: 37.63 pmoles/mg tissue wet weight
  renal concentration, α-Methylspermine: 227.76 ± 11.79 pmoles/mg tissue wet weight
  renal polyamine concentration, N^1-Acetylspermidine: 42.95 pmoles/mg tissue wet weight
  renal polyamine concentration, N^8-Acetylspermidine: 25.16 pmoles/mg tissue wet weight
  renal polyamine concentration, Putrescine: 68.39 pmoles/mg tissue wet weight
  renal polyamine concentration, Spermidine: 156.66 pmoles/mg tissue wet weight
  renal polyamine concentration, Spermine: 209.57 pmoles/mg tissue wet weight
[1]; [4]
  hepatic concentration, α-Methylspermidine: 274.07 ± 18.43 pmoles/mg tissue wet weight
  hepatic concentration, α-Methylspermine: 203.75 pmoles/mg tissue wet weight
  hepatic polyamine concentration, N^1-Acetylspermidine: 180.48 pmoles/mg tissue wet weight
  hepatic polyamine concentration, N^8-Acetylspermidine: 14.15 pmoles/mg tissue wet weight
  hepatic polyamine concentration, Putrescine: 774.33 pmoles/mg tissue wet weight
  hepatic polyamine concentration, Spermidine: 305.70 pmoles/mg tissue wet weight
  hepatic polyamine concentration, Spermine: 47.47 pmoles/mg tissue wet weight
  pancreatic concentration, α-Methylspermine: 105.85 ± 91.76 pmoles/mg tissue wet weight
  pancreatic polyamine concentration, N^1-Acetylspermidine: 176.49 pmoles/mg tissue wet weight
  pancreatic polyamine concentration, Putrescine: 7426.10 pmoles/mg tissue wet weight
  pancreatic polyamine concentration, Spermidine: 2106.09 pmoles/mg tissue wet weight
  pancreatic polyamine concentration, Spermine: 51.89 pmoles/mg tissue wet weight
  renal concentration, α-Methylspermine: 224.06 ± 27.10 pmoles/mg tissue wet weight
  renal polyamine concentration, N^1-Acetylspermidine: 32.33 pmoles/mg tissue wet weight
  renal polyamine concentration, N^8-Acetylspermidine: 24.59 pmoles/mg tissue wet weight
  renal polyamine concentration, Putrescine: 95.60 pmoles/mg tissue wet weight
  renal polyamine concentration, Spermidine: 233.85 pmoles/mg tissue wet weight
  renal polyamine concentration, Spermine: 158.91 pmoles/mg tissue wet weight
[1]; Tg (transgenic) mice, 50 mg/kg
  hepatic concentration, α-Methylspermidine: 255.30 ± 60.90 pmoles/mg tissue wet weight
  hepatic concentration, α-Methylspermine: 168.36 pmoles/mg tissue wet weight
  hepatic polyamine concentration, N^1-Acetylspermidine: 265.90 pmoles/mg tissue wet weight
  hepatic polyamine concentration, Putrescine: 1057.25 pmoles/mg tissue wet weight
  hepatic polyamine concentration, Spermidine: 196.67 pmoles/mg tissue wet weight
  hepatic polyamine concentration, Spermine: 38.02 pmoles/mg tissue wet weight
  pancreatic concentration, α-Methylspermine: 185.90 ± 20.82 pmoles/mg tissue wet weight
  pancreatic polyamine concentration, N^1-Acetylspermidine: 284.83 pmoles/mg tissue wet weight
  pancreatic polyamine concentration, Putrescine: 9027.03 pmoles/mg tissue wet weight
  pancreatic polyamine concentration, Spermidine: 3570.11 pmoles/mg tissue wet weight
  pancreatic polyamine concentration, Spermine: 70.53 pmoles/mg tissue wet weight
  renal concentration, α-Methylspermine: 319.33 ± 19.28 pmoles/mg tissue wet weight
  renal polyamine concentration, N^1-Acetylspermidine: 44.20 pmoles/mg tissue wet weight
  renal polyamine concentration, N^8-Acetylspermidine: 24.48 pmoles/mg tissue wet weight
  renal polyamine concentration, Putrescine: 91.94 pmoles/mg tissue wet weight
  renal polyamine concentration, Spermidine: 155.85 pmoles/mg tissue wet weight
  renal polyamine concentration, Spermine: 205.04 pmoles/mg tissue wet weight
[2]; Sg (syngenic) mice, 12.5 mg/kg
  Plasma ALAT: 54.33 ± 4.16 U/dm^3
  Plasma α-amylase: 2352.00 ± 206.37 U/dm^3
[2]; Sg (syngenic) mice, 25 mg/kg
  Plasma ALAT: 43.67 ± 4.04 U/dm^3
  Plasma α-amylase: 2645.67 ± 161.87 ^+ U/dm^3
[2]; Sg (syngenic) mice, 37.5 mg/kg
  Plasma ALAT: 47.67 ± 13.43 U/dm^3
  Plasma α-amylase: 2610.67 ± 144.67 U/dm^3
[2]; Sg (syngenic) mice, 50 mg/kg
  Plasma ALAT: 49.00 ± 2.83 U/dm^3
  Plasma α-amylase: 2512.33 ± 275.71 U/dm^3
[2]; [3]
  Plasma ALAT: 58.67 ± 7.77 U/dm^3
  Plasma α-amylase: 2675.67 ± 305.64 U/dm^3
[2]; Tg (transgenic) mice, 25 mg/kg
  Plasma ALAT: 44.67 ± 5.69 U/dm^3
  Plasma α-amylase: 2044.67 ± 112.93 U/dm^3
[2]; [4]
  Plasma ALAT: 37.00 ± 2.83 U/dm^3
  Plasma α-amylase: 2450.00 ± 410.12 U/dm^3
[2]; Tg (transgenic) mice, 50 mg/kg
  Plasma ALAT: 41.33 ± 3.79 U/dm^3
  Plasma α-amylase: 2667.00 ± 297.24 U/dm^3
